We go through 10 compounds from ChEMBL document CHEMBL1201862, “PubChem BioAssay data set” (2004).

Common to all, as to experiment: inhibition of tumour cell growth, NCI panel, 48 h
The subject of assay [1] is OVCAR-3.
Assay [2] has as its system CCRF-CEM.
Assay [3] has as its system SK-MEL-5.
Assay [4] deals with SNB-19.
Assay [5] has as its system M14.
The subject of assay [6] is NCI-H226.
Assay [7] has as its system RXF 393.
For assay [8], the system named is MDA-MB-231.
Assay [9] has as its system HCT-15.
The subject of assay [10] is SK-MEL-2.
The subject of assay [11] is NCI-H522.
Assay [12] relates to SNB-75.
The test system of assay [13] is HL-60.
Assay [14] relates to MDA-N.
The test system of assay [15] is KM12.
Assay [16] deals with UACC-257.
The test system of assay [17] is IGROV-1.
For assay [18], the system named is MCF7.
Assay [19] has as its system NCI-H460.
The subject of assay [20] is MOLT-4.

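Grown in 96-well plates, cells were treated for 48 hours with each compound at five concentrations. Insufficient inhibition: endpoint recorded as highest concentration tested. Abbreviation: GI50, concentration required for 50% inhibition of growth.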 Active and inactive are the calls of the source. Rule as the data show it: active = GI50 up to about 1.1 µM and inactive = higher.

As for `CCCCCC(=O)Nc1[nH]nnc1C#N`, the GI50 in [1], in [2], in assay [3], in assay [4], in [5] and in assay [6] was > 100 µM (inactive) each time. The GI50 in assay [7] is > 100 µM (inactive); in assay [8], > 100 µM (inactive); in [9], > 100 µM; in [10] it was > 100 µM (inactive); in assay [11], > 100 µM (inactive); in assay [12], > 100 µM (inactive). In addition, the GI50 in assay [13], in assay [14], in assay [15], in assay [16], in assay [17] and in [18] was > 100 µM (inactive) in each case. For the same compound, the GI50 in assay [19] and in assay [20] was > 100 µM (inactive) each time.
For `NC(=O)c1nnsc1N/N=C/c1ccc([N+](=O)[O-])cc1`, the GI50 in assay [1] is 55.2 µM (inactive); in assay [2], > 100 µM (inactive); in assay [3], > 100 µM (inactive); in assay [4] it was > 100 µM (inactive); in assay [5] it was > 100 µM (inactive); in assay [6], > 100 µM (inactive). The GI50 was > 100 µM (inactive) in assay [7]; > 100 µM (inactive) in assay [8]; > 100 µM in assay [9]; > 100 µM (inactive) in assay [10]; > 100 µM (inactive) in assay [11]; > 100 µM (inactive) in assay [12]. Moreover, the GI50 is 73.5 µM (inactive) in assay [13]; > 100 µM (inactive) in assay [14]; > 100 µM (inactive) in [15]; > 100 µM (inactive) in assay [16]; > 100 µM (inactive) in [17]; > 100 µM (inactive) in assay [18]. Also, the GI50 in assay [19] and in assay [20] was > 100 µM (inactive) each time.
For `Cn1c(-c2ccc(C=O)o2)ccc1-c1ccc(C=O)o1`, the GI50 in assay [1] is 26.2 µM (inactive); in assay [2], > 100 µM (inactive); in assay [3], 30.9 µM (inactive); in [4] it was 54.8 µM (inactive); in assay [5] it was 31 µM (inactive); in assay [6], 76.4 µM (inactive). Also, the GI50 in assay [7] is > 100 µM (inactive); in assay [8], 38 µM (inactive); in assay [9], 34 µM; in assay [10] it was > 100 µM (inactive); in assay [11], 1.68 µM (inactive); in [12], 39.5 µM (inactive). The GI50 is 19.8 µM (inactive) in assay [13]; 33.4 µM (inactive) in assay [14]; 36.2 µM (inactive) in assay [15]; 51.4 µM (inactive) in assay [16]; 36.9 µM (inactive) in assay [17]; 28.8 µM (inactive) in assay [18]. The GI50 was > 100 µM (inactive) in [19] and 24.8 µM (inactive) in [20].
For the compound `C[C@@H]1O[C@@H]2OCC[C@@H]2C2=C1C(=O)c1ccccc1C2=O`, the GI50 in assay [1] is 3.08 µM (inactive); in assay [2], 6.87 µM (inactive); in assay [3] it was 5.94 µM (inactive); in [4], 18.7 µM (inactive); in [5], 3.98 µM (inactive); in [6] it was 26.7 µM (inactive). In addition, the GI50 in [7] was 3.46 µM (inactive); in assay [8], 33.7 µM (inactive); in assay [9], 15.6 µM; in assay [10], 11 µM (inactive); in [11] it was 6.65 µM (inactive); in [12], 9.95 µM (inactive). Moreover, the GI50 in assay [13] was 3.51 µM (inactive); in assay [14], 1.85 µM (inactive); in assay [15], 15.2 µM (inactive); in assay [16], 11.5 µM (inactive); in [17] it was 1.98 µM (inactive); in [18], 1.25 µM (inactive). For the same compound, the GI50 in [19] was 16.7 µM (inactive); in [20], 7.74 µM (inactive).
Consider `COc1c2ccccc2c(OC)c2nc(C)ccc12`, for which the GI50 in [1] is > 100 µM (inactive); in assay [2] it was 23.7 µM (inactive); in assay [3], 71.4 µM (inactive); in [4], > 100 µM (inactive); in [5], > 100 µM (inactive); in assay [6], > 100 µM (inactive). In addition, the GI50 in assay [7] was > 100 µM (inactive); in [8], > 100 µM (inactive); in assay [9], 41.3 µM; in assay [10], > 100 µM (inactive); in [11], 69.7 µM (inactive); in assay [12], > 100 µM (inactive). Besides, the GI50 is 26.8 µM (inactive) in assay [13]; > 100 µM (inactive) in assay [14]; > 100 µM (inactive) in assay [15]; > 77.3 µM (inactive) in [16]; > 100 µM (inactive) in assay [17]; > 74 µM (inactive) in assay [18]. Further, the GI50 in [19] is 39.7 µM (inactive); in [20] it was 40.6 µM (inactive).
For `NC(CS)C(=O)NCCNc1ccc(NCCNC(=O)C(N)CS)c2c1C(=O)c1c(O)ccc(O)c1C2=O` (stereo not given), the GI50 is 0.405 µM (active) in assay [1]; 0.00149 µM (active) in assay [2]; 0.0948 µM (active) in assay [3]; 0.0188 µM (active) in assay [4]; 0.0248 µM (active) in assay [5]; 0.00847 µM (active) in assay [6]. The GI50 in assay [7] was 0.191 µM (active); in assay [8], 0.433 µM (active); in [9], 0.112 µM; in [10] it was 0.427 µM (active); in assay [11], 0.0279 µM (active); in assay [12], 0.0236 µM (active). Besides, the GI50 in assay [13] is 0.00175 µM (active); in assay [14], 0.359 µM (active); in [15], 0.135 µM (active); in assay [16] it was 0.857 µM (active); in [17] it was 0.219 µM (active); in assay [18], 0.00402 µM (active). For the same compound, the GI50 in assay [19] and in [20] was < 0.001 µM (active) in each case.
Regarding `CCOC(=O)n1c2ccccc2c(=O)n1CCO`, the GI50 in assay [1], in assay [2], in assay [3], in [4], in [5] and in assay [6] was > 100 µM (inactive) in each case. Also, the GI50 in assay [7] was 24.2 µM (inactive); in [8] it was > 100 µM (inactive); in assay [9] it was > 100 µM; in assay [10] it was > 100 µM (inactive); in assay [11], > 100 µM (inactive); in [12], 28.8 µM (inactive). The GI50 in [13], in assay [14], in assay [15], in assay [16], in [17] and in [18] was > 100 µM (inactive) throughout. Besides, the GI50 in assay [19] and in assay [20] was > 100 µM (inactive) each time.
As for `C#CCCCC(=O)N(C(=O)C[S+]([O-])CC)c1ccccc1` (stereo not given), the GI50 in assay [1], in assay [2], in [3], in assay [4], in assay [5] and in [6] was > 100 µM (inactive) in each case. Further, the GI50 was > 100 µM (inactive) in assay [7]; > 100 µM (inactive) in assay [8]; > 100 µM in assay [9]; > 100 µM (inactive) in [10]; > 100 µM (inactive) in [11]; > 100 µM (inactive) in assay [12]. Also, the GI50 in [13], in [14], in assay [15], in assay [16], in assay [17] and in assay [18] was > 100 µM (inactive) throughout. Besides, the GI50 in assay [19] and in assay [20] was > 100 µM (inactive) in each case.
Consider `COc1ccc2nc3cc(Cl)ccc3c(NCCCN3CCN(CCCNc4ccc5nnn6c7ccccc7c(=O)c4c56)CC3)c2c1`, for which the GI50 is > 25 µM (inactive) in [1]; 0.17 µM (active) in [2]; > 25 µM (inactive) in [3]; > 25 µM (inactive) in [4]; > 25 µM (inactive) in assay [5]; > 25 µM (inactive) in assay [6]. Further, the GI50 in assay [7] is 0.948 µM (active); in assay [8] it was 6.32 µM (inactive); in [9] it was 0.179 µM; in [10], > 25 µM (inactive); in assay [11], 0.391 µM (active); in assay [12], > 25 µM (inactive). The GI50 in assay [13] was 1.14 µM (inactive); in [14] it was 1.65 µM (inactive); in assay [15], 0.277 µM (active); in assay [16] it was 2.51 µM (inactive); in assay [17] it was 0.309 µM (active); in assay [18], 0.225 µM (active). Also, the GI50 in assay [19] was 0.0995 µM (active); in assay [20], 0.0743 µM (active).
As to `CC(=O)Nc1ccc(S(=O)(=O)[N-]C2C(=O)c3ccccc3C(=O)C2[n+]2ccccc2)cc1` (stereo not given), the GI50 is 16.4 µM (inactive) in [1]; 15.1 µM (inactive) in assay [2]; 3.87 µM (inactive) in assay [3]; 14.3 µM (inactive) in assay [4]; 14.1 µM (inactive) in [5]; > 100 µM (inactive) in [6]. The GI50 in assay [7] is 16 µM (inactive); in [8] it was 26.6 µM (inactive); in assay [9], 28.3 µM; in assay [10] it was 12.5 µM (inactive); in assay [11], 19.2 µM (inactive); in assay [12], 16.1 µM (inactive). Further, the GI50 in assay [13] was 13.8 µM (inactive); in assay [14], 17.2 µM (inactive); in assay [15], 14.6 µM (inactive); in assay [16], 16.1 µM (inactive); in [17], 15 µM (inactive); in assay [18], 16.8 µM (inactive). In addition, the results for the GI50 in assay [19] and in assay [20] were 29.3 µM (inactive) and 17.6 µM (inactive), respectively.
